Where two headings read alike, the source gives them in different places.
Columns and labels:
ePL-tagged Ikaros = target: T1, ePL-tagged Ikaros (Homo sapiens, UniProt Q13422+Q96SW2); assay: ePL-tagged substrate degradation in DF15 multiple myeloma cells; assay type: cell-based; settings: for DC50: Ikaros, DF15 cells, 4 hours, read-out: EC50 (the source's name)
T1 construct: expressed in transfected cells
Protocol: (§1) DF15 multiple myeloma cells stably expressing ePL-tagged Aiolos, Ikaros, or GSPT1, and MDS-L cells stably expressing ePL-tagged CK1a were generated via lentiviral infection with pLOC-ePL-Aiolos (or Ikaros, GSPT1, or CK1a). […] Compounds were dispensed by an acoustic dispenser (ATS acoustic transfer system from EDC Biosystems) into a 384-well plate in a 10-point dose response curve using 3-fold dilutions starting at 10 μM and going down to […]. Then, 25 μL of media (RPMI-1640+10% heat inactivated FBS+25 mM Hepes+1 mM Na pyruvate+1× NEAA+1×Pen Strep Glutamine) containing 5000 of DF15 or MSD-L cells was dispensed per well. Assay plates were incubated at 37° C. with 5% CO2 for 4 hours except 20 hours for GSPT1. After incubation, 25 μL of the InCELL Hunter detection reagent working solution (DiscoverX, catalogue no. 96-0002, Fremont, Calif.) was added to each well and incubated at room temperature for 60 min protected from light. After 60 min, luminescence was read on an Envision or PHERAstar luminescence reader.
(§2) To determine the EC50 value of a compound for the degradation of a given substrate (concentration of compound that achieves half the maximum degradation observed), a four-parameter logistic model (sigmoidal dose—response model) (FIT=(A+{(B−A)/1+[(C/x)D]})) where C is the inflection point (EC50), D is the […], and A and B are the low and high limits of the fit, respectively) was used. All substrate degradation curves were processed and evaluated using ActivityBase (IDBS), a data analysis software package. Ymin is minimum percent protein remaining.

ePL-tagged GSPT1 = target: T2, ePL-tagged GSPT1 (Homo sapiens, UniProt P15170+Q96SW2); assay: as above; assay type: cell-based; settings: for DC50: GSPT1, DF15 cells, 20 hours, read-out: EC50 (the source's name)
T2 construct: expressed in transfected cells
Protocol: as §1, §2

[1] = target: T3, CD19 CARs tagged with IKZF1 ZNF2_ZNF3 Q1F (Homo sapiens, UniProt Q13422, Q146F); assay: Small-molecule screen: Q1F degron-tagged CD19 CAR levels in Jurkat cells, flow cytometry; assay type: cell-based; settings: for Ymin (%): minimum percent protein remaining
T3 construct: EC50 (Q1F degron); other: Jurkat cells, 18 hours, CAR levels normalized to no drug; Ymin (Q1F degron); Ymin (%); minimum percent protein remaining; Nluc reporter
Protocol: A set of potential degron-targeting compounds was screened against the Q1F degron, resulting in a set of potent degron/small-molecule pairs. Lentiviral vectors containing CD19 CARs tagged with IKZF1 ZNF2_ZNF3 Q1F Nluc were transduced into Jurkat cells. The CD19 CAR was similar to the CD19 CAR in Example 2, but comprising the ZNF2_ZNF3 Q1F degron (SEQ ID NO: 19). Transduced cells were treated with a titration of each small molecule or no drug and then incubated at 37° C. for 18 hours. Cells were washed and stained with appropriate staining reagent to measure CAR levels. The cells were incubated at 4° C. in the staining reagents for 20 mins and then washed 3 times before being read on the flow cytometer. CAR levels were normalized to cells that had not been treated with drug. EC50 and Ymin values were calculated using the resulting titration curve. This identified small molecules that potently degraded the Q1F degron-tagged CARs (Table 1).

ePL-tagged Aiolos = target: T4, ePL-tagged Aiolos (Homo sapiens, UniProt Q96SW2+Q9UKT9); assay: ePL-tagged substrate degradation in DF15 multiple myeloma cells; assay type: cell-based; settings: for DC50: Aiolos, DF15 cells, 4 hours, read-out: EC50 (the source's name)
T4 construct: expressed in transfected cells
Protocol: as §1
(§3) All substrate degradation curves were processed and evaluated using ActivityBase (IDBS), a data analysis software package. Ymin is minimum percent protein remaining.

Helios = target: T5, Helios (Homo sapiens, UniProt Q96SW2+Q9UKS7); assay: Helios HiBit degradation in Jurkat cells; assay type: cell-based; settings: for DC50: Helios, Jurkat/Helios/HiBit cells, 18 hr, read-out: EC50 (the source's name)
T5 construct: endogenous in cells; host or cells: Jurkat/Helios/HiBit cells (CRISPR/Cas9 knock-in)
Protocol: For Helios, a stable Jurkat cell line was engineered using CRISPR/Cas9 to insert an in-frame HiBit tag into the carboxy-terminal reading frame of the IKZF2 gene. Test compounds were transferred to 1536 well plates using an acoustic dispenser, and Jurkat/Helios/HiBit cells in DMEM/10% FCS were plated at 10,000 cells/well in a final volume of 5 ul. Cells were incubated at 37C, 95% RH for 18 hr. Luciferase activity was measured by adding 2 ul/well of Nano-Glo reagent (Promega), incubating at RT for 30 min, and reading luminescence on a microtiter plate reader.
as §3

[2] = test system: IKZF1 ZNF2_3 Q1F tagged CD19 CAR; assay: Jurkat reporter assay (tdTomato), signaling of Q1F-tagged CAR after degradation; assay type: cell-based, human; settings: 1 mM pre-treatment 12 hours, co-culture with CD19-expressing K562 8 hours
Protocol: A lentiviral vector encoding ZNF2_3 Q1F or Q1F/G6N tagged CD19 CAR was transduced into the reporter cell line. […] Levels of tdTomato in the form of the overall percent of positive cells (FIG. 12A), as well as mean fluorescence intensity (MFI, FIG. 12B) were assessed by flow cytometry. Degradation of CARs containing the ZNF2_3 Q1F degron decreased signaling by around 30% using 1 mM Compound C and by around 75% using Compound B; this relative difference correlates with the depth of degradation seen for each. Further, the reduction in activity depends upon having an intact G-motif, as the G6N mutation prevents inhibition.

ePL-tagged CK1a = target: T6, ePL-tagged CK1a (Homo sapiens, UniProt P48729+Q96SW2); assay: ePL-tagged substrate degradation in MDS-L cells; assay type: cell-based; settings: for DC50: CK1a, MDS-L cells, 4 hours, read-out: EC50 (the source's name)
T6 construct: expressed in transfected cells
Protocol: as §1, §2

IKZF1 ZNF2 Q1F = assay: In vitro ubiquitination screen of Ikaros MBP-ZNF2 Q1 mutants; assay type: biochemical, human; settings: western blot
Text: Structural studies reveal that position 1 of the G-motif is in close proximity to the compound when substrates are bound to cereblon/compound complexes (not shown). Alignment of the G-motif degron sequences of the IKZF family (FIG. 8) and predicted degrons within other C2H2 zinc fingers (FIG. 9) reveal a diverse set of amino acids at this position. Therefore, to identify additional compound:degron pairs, mutations were made in the Q1 position of IKZF1 ZNF2, and potential compounds were screened for activity against these mutants. Plasmids were built containing Ikaros MBP-ZNF2 (aa 141-196) with alternate amino acids at the Q1 position, and an in vitro ubiquitination screen was conducted using various compounds including Compound B (FIG. 10A).

[3] = test system: ZNF2_3 Q1F tagged CD19 CAR; assay: Raji xenograft model, degron-tagged CAR T down-regulation in NSG mice; assay type: in vivo; settings: 6.85 mg/kg BID orally on days 0 and 1, Raji tumor
Protocol: (§4) The ability to degrade ZNF2_3 Q1F tagged CAR in vivo was evaluated. A lentiviral vector encoding ZNF2_3 Q1F tagged CD19 CAR was transduced into activated primary T cells. Transduced cells were expanded for 10 days in media supplemented with IL2, IL7 and IL15, then frozen.
To examine the down-regulation of degron-tagged CAR in vivo in a xenograft cancer model and the impact on CAR T function, female NSG™ mice were injected with 5×10^5 of Raji tumor cells stably expressing renilla luciferase. Six days later CAR T cells were thawed, rested for 24 hours and adoptively transferred into the mice at a dose of 2×10^6 cells per animal. Mice were dosed orally with vehicle or 6.85 mg/kg Compound D BID on days 0 and 1 (FIG. 19A). Blood was drawn and tumor fluorescence measured at D1, D3, and D10 (FIG. 19A), and the proportion of CAR+T cells, as determined by staining with anti-scFv and anti-CD3 antibodies, was evaluated by flow.

[4] = test system: ZNF2_3 Q1F tagged CD19 CAR; assay: In vivo degradation of degron-tagged CAR in non-tumor bearing NSG mice
Protocol: as §4
To determine the ability to degrade degron-tagged CAR in vivo in the absence of tumor, CAR T cells were thawed, rested for 24 hours and adoptively transferred into non-tumor bearing female NSG™ immunodeficient mice at a dose of 2×10^6 cells per animal. After 24 hours, mice were dosed orally with vehicle, 0.85 or 8.5 mg/kg Compound D (FIG. 18B). Blood was drawn 8, 24, 48 and 72 hours later (FIG. 18A), and the proportion of CAR+ T cells, as determined by staining with anti-scFv and anti-CD3 antibodies, was evaluated by flow.

[5] = test system: CD19 CARs tagged with IKZF1 ZNF2_ZNF3 Q1F; assay: Small-molecule screen: Q1F degron-tagged CD19 CAR levels in Jurkat cells, flow cytometry; assay type: cell-based, human; settings: versus Helios, Aiolos, Ikaros, GSPT1, CK1a
[6] = Degron Q1F (from Table 1), read-out: EC50 (the source's name)
[7] = Jurkat assay described in Example 5, read-out: EC50 for the Q1F degron
[8] = Jurkat cells, 18 hours, CAR levels normalized to no drug
[9] = Jurkat cells, 18 hours, CAR levels normalized to no drug, read-out: EC50 (Q1F degron)

T2 sequence (P15170 whole entry): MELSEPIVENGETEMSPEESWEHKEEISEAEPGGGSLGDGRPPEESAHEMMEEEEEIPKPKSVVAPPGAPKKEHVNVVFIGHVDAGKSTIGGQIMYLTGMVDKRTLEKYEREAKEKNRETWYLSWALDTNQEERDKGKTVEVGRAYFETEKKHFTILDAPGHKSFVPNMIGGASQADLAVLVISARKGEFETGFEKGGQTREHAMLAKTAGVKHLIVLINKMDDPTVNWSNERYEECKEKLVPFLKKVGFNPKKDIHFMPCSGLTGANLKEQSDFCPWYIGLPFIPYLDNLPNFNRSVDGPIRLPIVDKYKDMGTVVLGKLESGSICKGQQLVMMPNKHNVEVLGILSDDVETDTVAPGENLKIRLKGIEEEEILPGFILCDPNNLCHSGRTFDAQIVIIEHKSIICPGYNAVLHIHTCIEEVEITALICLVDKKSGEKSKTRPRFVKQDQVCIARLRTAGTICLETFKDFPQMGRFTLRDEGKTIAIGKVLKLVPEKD
T2 sequence (Q96SW2 whole entry): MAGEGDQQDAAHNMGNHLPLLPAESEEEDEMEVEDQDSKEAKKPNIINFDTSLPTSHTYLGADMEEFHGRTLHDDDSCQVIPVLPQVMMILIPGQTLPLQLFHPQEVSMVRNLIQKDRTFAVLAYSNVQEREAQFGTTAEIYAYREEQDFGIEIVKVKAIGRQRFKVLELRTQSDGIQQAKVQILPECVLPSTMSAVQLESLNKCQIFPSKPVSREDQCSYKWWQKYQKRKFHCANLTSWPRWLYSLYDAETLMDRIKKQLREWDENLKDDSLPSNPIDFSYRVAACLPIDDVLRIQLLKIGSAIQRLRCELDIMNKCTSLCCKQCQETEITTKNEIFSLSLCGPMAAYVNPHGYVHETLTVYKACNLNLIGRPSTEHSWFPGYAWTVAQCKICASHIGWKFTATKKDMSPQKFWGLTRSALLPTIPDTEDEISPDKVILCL
T2 sequence (Q16531 whole entry partner): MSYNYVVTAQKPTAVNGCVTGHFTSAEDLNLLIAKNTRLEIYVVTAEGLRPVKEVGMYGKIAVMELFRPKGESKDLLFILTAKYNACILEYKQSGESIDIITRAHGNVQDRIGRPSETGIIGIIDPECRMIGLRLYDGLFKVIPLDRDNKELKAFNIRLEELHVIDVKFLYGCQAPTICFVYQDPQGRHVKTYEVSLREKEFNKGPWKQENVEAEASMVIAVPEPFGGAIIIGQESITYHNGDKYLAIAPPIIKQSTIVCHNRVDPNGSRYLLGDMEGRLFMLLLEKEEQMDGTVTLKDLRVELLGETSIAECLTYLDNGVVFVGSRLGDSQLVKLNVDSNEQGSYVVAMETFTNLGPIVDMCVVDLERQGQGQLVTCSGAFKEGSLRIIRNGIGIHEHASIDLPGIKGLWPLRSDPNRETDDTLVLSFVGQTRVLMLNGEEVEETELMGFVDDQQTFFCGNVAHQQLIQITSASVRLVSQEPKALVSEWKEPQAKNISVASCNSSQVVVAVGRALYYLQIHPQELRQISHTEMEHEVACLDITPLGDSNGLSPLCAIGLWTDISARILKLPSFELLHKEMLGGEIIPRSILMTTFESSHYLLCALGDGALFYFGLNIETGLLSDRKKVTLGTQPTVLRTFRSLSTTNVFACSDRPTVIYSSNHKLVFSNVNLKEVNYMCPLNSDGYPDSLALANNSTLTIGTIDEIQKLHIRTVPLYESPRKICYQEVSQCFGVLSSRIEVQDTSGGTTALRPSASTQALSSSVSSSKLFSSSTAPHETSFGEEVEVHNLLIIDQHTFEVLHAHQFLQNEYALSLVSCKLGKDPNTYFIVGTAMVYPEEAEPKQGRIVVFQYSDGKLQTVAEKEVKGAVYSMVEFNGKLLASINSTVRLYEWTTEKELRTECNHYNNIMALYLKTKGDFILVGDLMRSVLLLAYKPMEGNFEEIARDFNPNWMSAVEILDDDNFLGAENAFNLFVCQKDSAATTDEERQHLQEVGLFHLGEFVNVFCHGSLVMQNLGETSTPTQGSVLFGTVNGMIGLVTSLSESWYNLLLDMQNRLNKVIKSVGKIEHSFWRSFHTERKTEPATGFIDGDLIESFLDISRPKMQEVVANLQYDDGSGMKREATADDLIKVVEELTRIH
T5 sequence (Q9UKS7 whole entry): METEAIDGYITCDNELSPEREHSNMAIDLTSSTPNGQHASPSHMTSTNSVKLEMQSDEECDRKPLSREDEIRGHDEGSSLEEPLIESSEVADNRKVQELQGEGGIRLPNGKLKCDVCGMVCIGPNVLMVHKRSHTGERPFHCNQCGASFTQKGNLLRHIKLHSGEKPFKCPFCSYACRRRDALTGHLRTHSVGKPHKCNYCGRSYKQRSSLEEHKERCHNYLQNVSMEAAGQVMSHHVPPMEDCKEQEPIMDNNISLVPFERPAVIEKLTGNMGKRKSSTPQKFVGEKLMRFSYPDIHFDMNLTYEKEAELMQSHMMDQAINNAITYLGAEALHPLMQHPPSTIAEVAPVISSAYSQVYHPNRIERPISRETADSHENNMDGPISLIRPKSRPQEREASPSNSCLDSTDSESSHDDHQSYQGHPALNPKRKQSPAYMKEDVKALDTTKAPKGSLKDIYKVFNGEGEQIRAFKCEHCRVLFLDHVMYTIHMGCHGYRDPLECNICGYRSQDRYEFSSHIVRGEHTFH
T5 sequence (Q96SW2 whole entry): as the sequence (Q96SW2 whole entry) above
T5 sequence (Q16531 whole entry partner): as the sequence (Q16531 whole entry partner) above
T4 sequence (Q9UKT9 whole entry): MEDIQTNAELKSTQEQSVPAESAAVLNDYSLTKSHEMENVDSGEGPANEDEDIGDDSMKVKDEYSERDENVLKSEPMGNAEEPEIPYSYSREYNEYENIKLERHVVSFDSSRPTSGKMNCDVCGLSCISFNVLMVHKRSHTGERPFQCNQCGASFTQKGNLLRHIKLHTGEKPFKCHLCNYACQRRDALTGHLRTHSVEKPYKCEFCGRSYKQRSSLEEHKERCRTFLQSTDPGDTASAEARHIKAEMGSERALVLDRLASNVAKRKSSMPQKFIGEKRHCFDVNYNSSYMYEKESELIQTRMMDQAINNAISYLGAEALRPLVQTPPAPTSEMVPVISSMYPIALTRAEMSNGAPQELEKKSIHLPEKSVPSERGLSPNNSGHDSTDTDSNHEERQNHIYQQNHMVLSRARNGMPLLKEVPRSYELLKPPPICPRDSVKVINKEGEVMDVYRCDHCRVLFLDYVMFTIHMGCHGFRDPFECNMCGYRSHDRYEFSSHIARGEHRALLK
T4 sequence (Q96SW2 whole entry): as the sequence (Q96SW2 whole entry) above
T4 sequence (Q16531 whole entry partner): as the sequence (Q16531 whole entry partner) above
T6 sequence (P48729 whole entry): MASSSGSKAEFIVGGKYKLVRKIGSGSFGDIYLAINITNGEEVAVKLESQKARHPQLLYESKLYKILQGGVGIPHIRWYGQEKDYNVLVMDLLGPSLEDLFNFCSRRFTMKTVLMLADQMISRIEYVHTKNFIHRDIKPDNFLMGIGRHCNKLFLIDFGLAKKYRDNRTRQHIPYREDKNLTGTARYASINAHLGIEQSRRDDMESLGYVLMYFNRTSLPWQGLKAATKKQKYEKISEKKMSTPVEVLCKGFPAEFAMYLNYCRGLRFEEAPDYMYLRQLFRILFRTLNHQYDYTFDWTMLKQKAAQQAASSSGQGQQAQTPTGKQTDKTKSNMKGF
T6 sequence (Q96SW2 whole entry): as the sequence (Q96SW2 whole entry) above
T6 sequence (Q16531 whole entry partner): as the sequence (Q16531 whole entry partner) above
T1 sequence (Q13422 whole entry): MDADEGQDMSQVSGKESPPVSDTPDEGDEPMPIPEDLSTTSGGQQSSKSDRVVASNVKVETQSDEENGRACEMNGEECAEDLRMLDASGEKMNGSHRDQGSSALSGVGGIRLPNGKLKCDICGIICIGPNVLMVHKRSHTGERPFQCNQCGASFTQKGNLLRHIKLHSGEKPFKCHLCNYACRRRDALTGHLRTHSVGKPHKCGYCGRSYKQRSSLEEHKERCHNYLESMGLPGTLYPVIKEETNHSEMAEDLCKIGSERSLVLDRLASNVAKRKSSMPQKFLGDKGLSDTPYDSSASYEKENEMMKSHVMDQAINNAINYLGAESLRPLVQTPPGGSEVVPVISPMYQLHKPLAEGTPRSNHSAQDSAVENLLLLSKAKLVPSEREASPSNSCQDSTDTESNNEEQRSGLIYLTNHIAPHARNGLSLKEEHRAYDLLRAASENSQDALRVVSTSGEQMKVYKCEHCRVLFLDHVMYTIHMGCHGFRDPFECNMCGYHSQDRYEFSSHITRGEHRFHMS
T1 sequence (Q96SW2 whole entry): as the sequence (Q96SW2 whole entry) above
T1 sequence (Q16531 whole entry partner): as the sequence (Q16531 whole entry partner) above
T3 sequence (Q13422 whole entry Q146F): as the sequence (Q13422 whole entry) above, with Q146F counted along it

Ymin (%) (ePL-tagged Ikaros) | DC50 (ePL-tagged Ikaros) | Ymin (%) (ePL-tagged GSPT1) | DC50 (ePL-tagged GSPT1) | Ymin (%) ([1]; Degron Q1F (from Table 1)) | DC50 [1, 6] | DC50 [1, 7] | Ymin (Q1F degron) [1, 8] | DC50 [1, 9] | Ymin (%) (ePL-tagged Aiolos) | DC50 (ePL-tagged Aiolos) | Ymin (%) (Helios) | degradation of Helios (in words) (Helios) | DC50 (Helios) | Ymin (%) (ePL-tagged CK1a) | DC50 (ePL-tagged CK1a) | SMILES | also measured
91% | > 10 µM | 72% | 0.054 µM | 1.7% | 0.0048 µM | < 0.005 µM | 1.7% | 0.0048 µM | 93% | > 10 µM | 65% | some degradation activity against Helios | > 10 µM | 82% | > 10 µM | O=C1CCC(N2Cc3cc(C(=O)N4Cc5cccnc5C4)ccc3C2=O)C(=O)N1 (stereo not shown) [Compound B, 3-(5-(6,7-dihydro-5H-pyrrolo[3,4-b]pyridine-6-carbonyl)-1-oxoisoindolin-2-yl)piperidine-2,6-dione] | degradation of GSPT1 (in words) (ePL-tagged GSPT1): some degradation activity against GSPT1; decrease of signaling (tdTomato reporter) [2]: around 75%; ubiquitination of IKZF1 ZNF2 Q1F (IKZF1 ZNF2 Q1F): heavily ubiquitinated
93% | > 10 µM | 96% | > 10 µM | 4.2% | 0.0007 µM | < 0.001 µM | 4.2% | 0.0007 µM | 87% | > 10 µM | 24% | some degradation of Helios | 0.46 µM | 81% | > 10 µM | O=C1CCC(N2Cc3cc(C4CCN(Cc5ccc6ncsc6c5)CC4)ccc3C2=O)C(=O)N1 (stereo not shown) [Compound D, 3-[5-[1-(1,3-benzothiazol-6-ylmethyl)-4-piperidyl]-1-oxo-isoindolin-2-yl]piperidine-2,6-dione] | expansion and cytolytic function of degron-tagged CAR T cells [3]: decreased expansion and cytolytic function; CD3+ CAR+ cells remaining ([4]; 0.85 or 8.5 mg/kg orally (both doses), blood at 8 hours): < 5%; CAR level in vivo ([4]; 0.85 or 8.5 mg/kg orally, 24 hours): remained significantly degraded; CAR expression in vivo ([4]; 48 hours after dosing): substantially restored; selectivity for the Q1F degron (in words) [5]: selective for the Q1F degron

Reference: US20230095912A1, “Composition and Methods for Selective Degradation of Engineered Proteins” (Celgene Corporation, priority 2021, published 2023)
